MIC data for four compounds are collected here from patent US20260144251A1, “ANTIMICROBIAL NANOCLAYS COMPRISING CATIONIC ANTIMICROBIALS, METHOD OF PREPARATION AND USES THEREOF” (Polyamyna Nanotech Inc., priority 2019, published 2026).

Assay in all cases: MIC, microbroth dilution method
(In broth dilution the organism is exposed to a series of concentrations in liquid medium.)

The subject of test [1] is A. baumannii (AB034). The format is cell-based. Here is the method: (§1) The antimicrobial activity (minimum inhibitory concentration, MIC) was evaluated by employing microbroth dilution method to determine the lowest concentration of the assayed antimicrobial additive material.
For test [2], the system named is E. cloacae (EB5). It counts as cell-based. The method, then:
as §1

Test [3] relates to E. coli (K12). It counts as cell-based. The method, then:
as §1

The subject of test [4] is K. pneumoniae (KP001). The format is cell-based. The method, then: as §1
The test system of test [5] is P. aeruginosa (PA07). It counts as cell-based. Here is the method:
as §1

For test [6], the system named is MRSA (SA001). The format is cell-based, Staphylococcus aureus. Here is the method: as §1
For test [7], the system named is A. baumannii (AB30). The format is cell-based. Here is the method:
as §1

Test [8] relates to MRSA (SA004). It counts as cell-based, Staphylococcus aureus. Here is the method:
as §1

For test [9], the system named is E. coli (E524). The format is cell-based. To be noted: Escherichia coli. Here is the method:
as §1

≈ marks a conversion by molar mass, not a printed value. Read-outs that look alike come from different tables or passages of the source. Some results are limits rather than exact numbers.

In general, MIC refers to the lowest concentration that inhibits growth of the organism.

Consider Benzalkonium chloride [BAC], for which the minimum inhibitory concentration (MIC) was 2 µg/mL in test [1]; 8 µg/mL in test [2]; 16 µg/mL in [3]; 4 µg/mL in [4]; 32 µg/mL in [5]; 1 µg/mL in [6].

With `[Ag]` [Ag, Silver], the minimal inhibitory concentration (MIC) came out at 8 µg/mL in test [1]; 32 µg/mL in [2]; 2 µg/mL in test [3]; 8 µg/mL in [4]; 2 µg/mL in test [5]; 8 µg/mL in test [6].

In the case of Neomycin, the MIC in [7] was found to be 8 µg/mL; in test [2], 4 µg/mL; in test [5] it was 128 µg/mL; in test [8], 4 µg/mL.

In the case of `[H]/N=C(\N/C(=N/[H])NCCCCCCNC(=N)NC(=N)Nc1ccc(Cl)cc1)Nc1ccc(Cl)cc1` [Chlorhexidine], the minimal inhibitory concentration (MIC) was 256 µg/mL (≈ 506 µM) in [7] (Acinetobacter baumannii, read-out: MIC); 8 µg/mL (≈ 15.8 µM) in [2] (Enterobacter cloacae, read-out: MIC); 2 µg/mL (≈ 3.96 µM) in test [9]; < 0.5 µg/mL in [4] (Klebsiella pneumoniae, read-out: MIC); 16 µg/mL (≈ 31.7 µM) in test [5] (Pseudomonas aeruginosa, read-out: MIC); 8 µg/mL (≈ 15.8 µM) in test [8] (Staphylococcus aureus, read-out: MIC).
